{"source": "patent US5733719A", "about": "“Method of making an assay compound” (priority 1995, dated 1998)", "key": {"[1]": {"test_system": "Grans", "test": "Peptidases to distinguish leukemia from non-leukemia, granulocytes", "format": "cell-based, human", "parameters": "unit not given here", "excerpt": "(§1) Artificial intelligence was used to analyze data of cellular enzyme functions, and determine normal and disease states. Peptidases were used to distinguish leukemia from non-leukemia (output pattern). For input patterns lymphocyte and granulocyte cell types were used with aminopeptidases, cathepsins and dipeptidylpeptidase enzyme activities. In this Example, illustrated in Tables 6A-6C, three normals and three leukemia patients were used as known output patterns for the neural network to learn (in practice, the larger the learning set the more accurate unknown prediction will be). Unknowns were then presented to the learned algorithm as shown in the test case examples. Clinical diagnosis was confirmed by physicians. The trained neural network was able to correctly classify the leukemia from the non-leukemia."}, "[2]": {"test_system": "Lymphs", "test": "Peptidases to distinguish leukemia from non-leukemia, lymphocytes", "format": "cell-based, human", "parameters": "unit not given here", "excerpt": "as §1"}}}
{"smiles": "C[C@H](N)C(=O)Nc1ccc2c(c1)Oc1cc(NC(=O)[C@H](C)N)ccc1C21OC(=O)c2ccccc21", "note": "[ALA, (Ala)2 Rho 110]", "values": [{"measurement": "enzyme activity", "setting": "[1]; J4 11/21/91 acute leuk.", "result": 193.43}, {"measurement": "enzyme activity", "setting": "[1]; J4 12/2/91 AL", "result": 139.53}, {"measurement": "enzyme activity", "setting": "[1]; J4 12/3/91 acute leuk.", "result": 138.89}, {"measurement": "enzyme activity", "setting": "[1]; J5 11/27/91 AML", "result": 194.85}, {"measurement": "enzyme activity", "setting": "[1]; J19 11/27/91 CLL", "result": 143.11}, {"measurement": "enzyme activity", "setting": "[1]; J22 12/2/91 AML", "result": 157.12}, {"measurement": "enzyme activity", "setting": "[1]; J22 12/9/91 AML", "result": 157.48}, {"measurement": "enzyme activity", "setting": "[1]; N99° normal", "result": 157.30}, {"measurement": "enzyme activity", "setting": "[1]; N191 normal", "result": 177.32}, {"measurement": "enzyme activity", "setting": "[1]; N192 normal", "result": 154.84}, {"measurement": "enzyme activity", "setting": "[1]; N193 normal", "result": 178.64}, {"measurement": "enzyme activity", "setting": "[1]; N194 normal", "result": 164.00}, {"measurement": "enzyme activity", "setting": "[1]; N195 normal", "result": 221.28}, {"measurement": "enzyme activity", "setting": "[1]; N197 normal", "result": 188.20}, {"measurement": "enzyme activity", "setting": "[1]; N200 normal", "result": 171.06}, {"measurement": "enzyme activity", "setting": "[1]; N201 normal", "result": 206.06}, {"measurement": "enzyme activity", "setting": "[1]; N202 normal", "result": 201.17}, {"measurement": "enzyme activity", "setting": "[1]; N206 normal", "result": 232.57}, {"measurement": "enzyme activity", "setting": "[1]; P68 tachycardia", "result": 276.07}, {"measurement": "enzyme activity", "setting": "[1]; P69 pancreatic CA", "result": 204.02}, {"measurement": "enzyme activity", "setting": "[1]; P70 cirrhosis/hemobilia", "result": 236.23}, {"measurement": "enzyme activity", "setting": "[1]; P71 ac. pyelonephritis", "result": 185.37}, {"measurement": "enzyme activity", "setting": "[2]; J4 11/21/91 acute leuk.", "result": 86.00}, {"measurement": "enzyme activity", "setting": "[2]; J4 12/2/91 AL", "result": 68.10}, {"measurement": "enzyme activity", "setting": "[2]; J4 12/3/91 acute leuk.", "result": 74.64}, {"measurement": "enzyme activity", "setting": "[2]; J5 11/27/91 AML", "result": 92.44}, {"measurement": "enzyme activity", "setting": "[2]; J19 11/27/91 CLL", "result": 47.78}, {"measurement": "enzyme activity", "setting": "[2]; J22 12/2/91 AML", "result": 84.42}, {"measurement": "enzyme activity", "setting": "[2]; J22 12/9/91 AML", "result": 83.48}, {"measurement": "enzyme activity", "setting": "[2]; N99° normal", "result": 91.07}, {"measurement": "enzyme activity", "setting": "[2]; N191 normal", "result": 95.72}, {"measurement": "enzyme activity", "setting": "[2]; N192 normal", "result": 103.31}, {"measurement": "enzyme activity", "setting": "[2]; N193 normal", "result": 100.50}, {"measurement": "enzyme activity", "setting": "[2]; N194 normal", "result": 97.02}, {"measurement": "enzyme activity", "setting": "[2]; N195 normal", "result": 118.81}, {"measurement": "enzyme activity", "setting": "[2]; N197 normal", "result": 96.36}, {"measurement": "enzyme activity", "setting": "[2]; N200 normal", "result": 101.38}, {"measurement": "enzyme activity", "setting": "[2]; N201 normal", "result": 106.72}, {"measurement": "enzyme activity", "setting": "[2]; N202 normal", "result": 118.37}, {"measurement": "enzyme activity", "setting": "[2]; N206 normal", "result": 122.71}, {"measurement": "enzyme activity", "setting": "[2]; P68 tachycardia", "result": 1471.10}, {"measurement": "enzyme activity", "setting": "[2]; P69 pancreatic CA", "result": 130.34}, {"measurement": "enzyme activity", "setting": "[2]; P70 cirrhosis/hemobilia", "result": 141.87}, {"measurement": "enzyme activity", "setting": "[2]; P71 ac. pyelonephritis", "result": 109.26}]}
{"smiles": "NC(=O)CC[C@H](N)C(=O)N[C@@H](CO)C(=O)Nc1ccc2c(c1)Oc1cc(NC(=O)[C@H](CO)NC(=O)[C@@H](N)CCC(N)=O)ccc1C21OC(=O)c2ccccc21", "note": "[QS, (H--L--Gln--Ser)2 Rho 110-2TFA]", "values": [{"measurement": "enzyme activity", "setting": "[1]; J4 11/21/91 acute leuk.", "result": 0.22}, {"measurement": "enzyme activity", "setting": "[1]; J4 12/2/91 AL", "result": 0.44}, {"measurement": "enzyme activity", "setting": "[1]; J4 12/3/91 acute leuk.", "result": 0.19}, {"measurement": "enzyme activity", "setting": "[1]; J5 11/27/91 AML", "result": 1.24}, {"measurement": "enzyme activity", "setting": "[1]; J19 11/27/91 CLL", "result": 1.16}, {"measurement": "enzyme activity", "setting": "[1]; J22 12/2/91 AML", "result": 0.10}, {"measurement": "enzyme activity", "setting": "[1]; J22 12/9/91 AML", "result": 0.24}, {"measurement": "enzyme activity", "setting": "[1]; N99° normal", "result": 0.05}, {"measurement": "enzyme activity", "setting": "[1]; N191 normal", "result": 0.19}, {"measurement": "enzyme activity", "setting": "[1]; N192 normal", "result": 0.15}, {"measurement": "enzyme activity", "setting": "[1]; N193 normal", "result": 0.14}, {"measurement": "enzyme activity", "setting": "[1]; N194 normal", "result": 0.07}, {"measurement": "enzyme activity", "setting": "[1]; N195 normal", "result": 0.21}, {"measurement": "enzyme activity", "setting": "[1]; N197 normal", "result": 0.24}, {"measurement": "enzyme activity", "setting": "[1]; N200 normal", "result": 0.06}, {"measurement": "enzyme activity", "setting": "[1]; N201 normal", "result": 0.09}, {"measurement": "enzyme activity", "setting": "[1]; N202 normal", "result": 0.08}, {"measurement": "enzyme activity", "setting": "[1]; N206 normal", "result": 0.27}, {"measurement": "enzyme activity", "setting": "[1]; P68 tachycardia", "result": 0.33}, {"measurement": "enzyme activity", "setting": "[1]; P69 pancreatic CA", "result": 0.37}, {"measurement": "enzyme activity", "setting": "[1]; P70 cirrhosis/hemobilia", "result": 0.19}, {"measurement": "enzyme activity", "setting": "[1]; P71 ac. pyelonephritis", "result": 0.51}, {"measurement": "enzyme activity", "setting": "[2]; J4 11/21/91 acute leuk.", "result": 0.05}, {"measurement": "enzyme activity", "setting": "[2]; J4 12/2/91 AL", "result": 0.01}, {"measurement": "enzyme activity", "setting": "[2]; J4 12/3/91 acute leuk.", "result": 0.06}, {"measurement": "enzyme activity", "setting": "[2]; J5 11/27/91 AML", "result": 0.07}, {"measurement": "enzyme activity", "setting": "[2]; J19 11/27/91 CLL", "result": 0.06}, {"measurement": "enzyme activity", "setting": "[2]; J22 12/2/91 AML", "result": 0.02}, {"measurement": "enzyme activity", "setting": "[2]; J22 12/9/91 AML", "result": 0.02}, {"measurement": "enzyme activity", "setting": "[2]; N99° normal", "result": 0.02}, {"measurement": "enzyme activity", "setting": "[2]; N191 normal", "result": 0.02}, {"measurement": "enzyme activity", "setting": "[2]; N192 normal", "result": 0.03}, {"measurement": "enzyme activity", "setting": "[2]; N193 normal", "result": 0.03}, {"measurement": "enzyme activity", "setting": "[2]; N194 normal", "result": 0.02}, {"measurement": "enzyme activity", "setting": "[2]; N195 normal", "result": 0.04}, {"measurement": "enzyme activity", "setting": "[2]; N197 normal", "result": 0.06}, {"measurement": "enzyme activity", "setting": "[2]; N200 normal", "result": 0.01}, {"measurement": "enzyme activity", "setting": "[2]; N201 normal", "result": 0.02}, {"measurement": "enzyme activity", "setting": "[2]; N202 normal", "result": 0.01}, {"measurement": "enzyme activity", "setting": "[2]; N206 normal", "result": 0.04}, {"measurement": "enzyme activity", "setting": "[2]; P68 tachycardia", "result": 0.02}, {"measurement": "enzyme activity", "setting": "[2]; P69 pancreatic CA", "result": 0.31}, {"measurement": "enzyme activity", "setting": "[2]; P70 cirrhosis/hemobilia", "result": 0.04}, {"measurement": "enzyme activity", "setting": "[2]; P71 ac. pyelonephritis", "result": 0.05}]}
